Test [1] has as its target T1, Alpha-2C adrenergic receptor (Homo sapiens, UniProt P18825).
T1 sequence (P18825 whole entry): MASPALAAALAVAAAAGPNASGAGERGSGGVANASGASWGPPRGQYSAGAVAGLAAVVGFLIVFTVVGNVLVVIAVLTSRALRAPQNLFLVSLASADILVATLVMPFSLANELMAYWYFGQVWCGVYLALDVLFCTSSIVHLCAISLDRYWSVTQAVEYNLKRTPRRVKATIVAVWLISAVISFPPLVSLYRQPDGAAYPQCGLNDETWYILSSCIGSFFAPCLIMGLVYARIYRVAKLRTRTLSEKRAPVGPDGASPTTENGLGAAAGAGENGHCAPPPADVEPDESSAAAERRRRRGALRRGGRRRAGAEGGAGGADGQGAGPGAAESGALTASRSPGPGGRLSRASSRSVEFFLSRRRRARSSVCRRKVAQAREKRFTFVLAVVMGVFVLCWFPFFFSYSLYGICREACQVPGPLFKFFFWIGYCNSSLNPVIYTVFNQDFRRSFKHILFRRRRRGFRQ
The format is functional.

The target of the next test is Vasopressin V1a receptor (Homo sapiens, UniProt P37288).
For test [2], the target named is T2, Muscarinic acetylcholine receptor M2 (Homo sapiens, UniProt P08172).
T2 sequence (P08172 whole entry): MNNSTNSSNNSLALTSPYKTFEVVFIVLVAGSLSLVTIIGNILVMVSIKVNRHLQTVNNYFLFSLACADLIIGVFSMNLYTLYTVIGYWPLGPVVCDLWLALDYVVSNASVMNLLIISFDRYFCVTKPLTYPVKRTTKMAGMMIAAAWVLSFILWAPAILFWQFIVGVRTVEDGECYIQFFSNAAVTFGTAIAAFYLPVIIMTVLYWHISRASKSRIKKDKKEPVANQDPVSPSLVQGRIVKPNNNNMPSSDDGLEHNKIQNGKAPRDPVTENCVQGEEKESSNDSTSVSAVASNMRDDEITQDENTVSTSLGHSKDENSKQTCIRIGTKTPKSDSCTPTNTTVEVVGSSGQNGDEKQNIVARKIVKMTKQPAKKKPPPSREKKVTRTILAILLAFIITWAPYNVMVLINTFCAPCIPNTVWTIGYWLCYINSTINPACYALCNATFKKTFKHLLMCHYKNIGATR
The format is functional, cell-based.

Test [3] has as its target 5-hydroxytryptamine receptor 2B (Homo sapiens, UniProt P41595). It is filed as functional, cell-based.
In test [4] the target is T3, 5-hydroxytryptamine receptor 2C (Homo sapiens, UniProt P28335).
T3 sequence (P28335 whole entry): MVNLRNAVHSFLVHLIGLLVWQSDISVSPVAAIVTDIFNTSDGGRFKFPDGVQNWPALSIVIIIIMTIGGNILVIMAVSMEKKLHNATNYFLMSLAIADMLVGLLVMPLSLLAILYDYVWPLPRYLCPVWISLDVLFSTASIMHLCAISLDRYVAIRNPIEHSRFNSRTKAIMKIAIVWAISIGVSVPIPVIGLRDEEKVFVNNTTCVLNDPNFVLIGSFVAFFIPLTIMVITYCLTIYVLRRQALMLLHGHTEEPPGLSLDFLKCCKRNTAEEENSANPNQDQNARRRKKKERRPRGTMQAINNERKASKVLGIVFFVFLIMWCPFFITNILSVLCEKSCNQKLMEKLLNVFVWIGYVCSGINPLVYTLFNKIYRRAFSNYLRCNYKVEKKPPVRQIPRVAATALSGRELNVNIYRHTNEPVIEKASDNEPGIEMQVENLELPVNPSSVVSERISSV

Test [5] concerns the target T4, Neuropeptide Y receptor type 1 (Homo sapiens, UniProt P25929).
T4 sequence (P25929 whole entry): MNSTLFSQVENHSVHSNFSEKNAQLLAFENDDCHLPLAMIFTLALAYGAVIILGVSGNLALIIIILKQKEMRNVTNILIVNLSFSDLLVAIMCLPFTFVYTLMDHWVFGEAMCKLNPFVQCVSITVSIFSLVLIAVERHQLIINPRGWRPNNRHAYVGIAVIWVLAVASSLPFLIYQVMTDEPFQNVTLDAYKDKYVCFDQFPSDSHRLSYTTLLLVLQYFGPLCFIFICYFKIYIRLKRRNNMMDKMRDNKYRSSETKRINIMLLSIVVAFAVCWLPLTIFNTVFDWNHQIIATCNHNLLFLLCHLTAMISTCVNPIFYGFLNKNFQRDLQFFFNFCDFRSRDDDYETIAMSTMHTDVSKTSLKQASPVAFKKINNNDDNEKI

Test [6] has as its target Delta-type opioid receptor (Homo sapiens, UniProt P41143).
For test [7], the target named is Kappa-type opioid receptor (Homo sapiens, UniProt P41145).
The target of test [8] is Sodium-dependent dopamine transporter (Homo sapiens, UniProt Q01959).
A further test addresses Histamine H3 receptor (Homo sapiens, UniProt Q9Y5N1).
The target of test [9] is Voltage-gated inwardly rectifying potassium channel KCNH2 (Homo sapiens, UniProt Q12809). It is filed as functional. As to conditions: read-out: AC50.
In test [10] the target is T5, Muscarinic acetylcholine receptor M1 (Homo sapiens, UniProt P11229).
T5 sequence (P11229 whole entry): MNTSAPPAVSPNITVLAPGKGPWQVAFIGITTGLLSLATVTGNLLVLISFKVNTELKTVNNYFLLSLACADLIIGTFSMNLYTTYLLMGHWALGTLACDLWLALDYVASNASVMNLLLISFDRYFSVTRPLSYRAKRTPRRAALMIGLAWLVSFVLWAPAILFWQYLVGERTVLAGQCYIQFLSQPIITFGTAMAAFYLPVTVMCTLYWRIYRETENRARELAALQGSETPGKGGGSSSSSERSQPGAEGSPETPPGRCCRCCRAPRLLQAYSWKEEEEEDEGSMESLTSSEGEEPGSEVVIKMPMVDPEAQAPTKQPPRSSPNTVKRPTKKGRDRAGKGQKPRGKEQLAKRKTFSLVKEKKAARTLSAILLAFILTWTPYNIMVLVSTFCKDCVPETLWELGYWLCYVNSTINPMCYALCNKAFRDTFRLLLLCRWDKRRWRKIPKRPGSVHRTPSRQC
It is filed as functional.

Structures are written as SMILES.

In general, AC50 refers to the midpoint of the concentration-response curve, whichever way the signal moves.
Note: assay procedure not described here.

5-hydroxytryptamine receptor 2B, sequence (P41595 whole entry): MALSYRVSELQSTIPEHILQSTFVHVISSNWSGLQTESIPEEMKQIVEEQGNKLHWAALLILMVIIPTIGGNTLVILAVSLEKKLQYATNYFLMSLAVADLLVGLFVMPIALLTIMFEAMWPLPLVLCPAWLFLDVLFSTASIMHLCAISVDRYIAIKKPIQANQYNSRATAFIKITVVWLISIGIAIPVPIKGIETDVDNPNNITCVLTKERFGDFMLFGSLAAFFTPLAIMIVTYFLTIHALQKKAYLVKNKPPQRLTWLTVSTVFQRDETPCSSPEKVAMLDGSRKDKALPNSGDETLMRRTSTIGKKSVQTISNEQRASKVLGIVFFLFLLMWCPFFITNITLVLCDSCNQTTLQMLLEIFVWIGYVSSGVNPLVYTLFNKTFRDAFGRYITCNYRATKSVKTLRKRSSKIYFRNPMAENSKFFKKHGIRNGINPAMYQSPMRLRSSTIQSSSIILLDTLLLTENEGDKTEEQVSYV
Vasopressin V1a receptor, sequence (P37288 whole entry): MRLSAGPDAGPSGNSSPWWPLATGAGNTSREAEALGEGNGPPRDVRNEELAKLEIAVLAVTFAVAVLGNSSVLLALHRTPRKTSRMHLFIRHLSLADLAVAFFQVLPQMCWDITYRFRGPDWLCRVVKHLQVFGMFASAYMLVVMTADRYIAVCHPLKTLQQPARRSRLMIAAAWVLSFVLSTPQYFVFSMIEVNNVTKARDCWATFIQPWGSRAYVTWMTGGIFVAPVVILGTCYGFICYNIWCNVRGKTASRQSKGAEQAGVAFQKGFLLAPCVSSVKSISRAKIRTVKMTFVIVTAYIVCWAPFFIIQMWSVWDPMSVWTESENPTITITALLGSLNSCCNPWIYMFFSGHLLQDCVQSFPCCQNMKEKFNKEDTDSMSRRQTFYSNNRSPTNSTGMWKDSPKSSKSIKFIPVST
Kappa-type opioid receptor, sequence (P41145 whole entry): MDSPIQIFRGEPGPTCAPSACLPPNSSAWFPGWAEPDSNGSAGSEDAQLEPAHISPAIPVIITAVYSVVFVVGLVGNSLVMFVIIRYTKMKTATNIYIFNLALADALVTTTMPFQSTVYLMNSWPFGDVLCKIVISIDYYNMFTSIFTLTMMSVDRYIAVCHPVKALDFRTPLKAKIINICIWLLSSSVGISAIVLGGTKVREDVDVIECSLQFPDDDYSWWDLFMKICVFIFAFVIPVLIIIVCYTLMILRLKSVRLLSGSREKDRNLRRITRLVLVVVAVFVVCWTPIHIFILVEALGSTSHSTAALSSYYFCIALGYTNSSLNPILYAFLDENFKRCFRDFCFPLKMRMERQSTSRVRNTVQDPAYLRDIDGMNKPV
Sodium-dependent dopamine transporter, sequence (Q01959 whole entry): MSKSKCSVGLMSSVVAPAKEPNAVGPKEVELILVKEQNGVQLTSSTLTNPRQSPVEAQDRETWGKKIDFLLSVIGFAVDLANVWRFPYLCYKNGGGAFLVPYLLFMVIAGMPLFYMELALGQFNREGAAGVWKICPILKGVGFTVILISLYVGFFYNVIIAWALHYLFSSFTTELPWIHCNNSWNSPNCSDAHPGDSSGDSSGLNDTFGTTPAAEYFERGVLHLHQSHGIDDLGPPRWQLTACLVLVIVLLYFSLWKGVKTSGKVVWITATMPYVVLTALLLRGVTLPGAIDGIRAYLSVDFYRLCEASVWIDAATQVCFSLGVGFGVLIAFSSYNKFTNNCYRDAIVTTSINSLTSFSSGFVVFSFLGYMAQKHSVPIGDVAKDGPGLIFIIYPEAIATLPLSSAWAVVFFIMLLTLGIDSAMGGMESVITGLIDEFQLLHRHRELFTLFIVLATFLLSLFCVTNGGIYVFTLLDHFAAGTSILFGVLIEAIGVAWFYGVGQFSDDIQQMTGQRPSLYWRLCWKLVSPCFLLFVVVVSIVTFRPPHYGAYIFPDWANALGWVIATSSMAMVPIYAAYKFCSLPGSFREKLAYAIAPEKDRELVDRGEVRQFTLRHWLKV
Delta-type opioid receptor, sequence (P41143 whole entry): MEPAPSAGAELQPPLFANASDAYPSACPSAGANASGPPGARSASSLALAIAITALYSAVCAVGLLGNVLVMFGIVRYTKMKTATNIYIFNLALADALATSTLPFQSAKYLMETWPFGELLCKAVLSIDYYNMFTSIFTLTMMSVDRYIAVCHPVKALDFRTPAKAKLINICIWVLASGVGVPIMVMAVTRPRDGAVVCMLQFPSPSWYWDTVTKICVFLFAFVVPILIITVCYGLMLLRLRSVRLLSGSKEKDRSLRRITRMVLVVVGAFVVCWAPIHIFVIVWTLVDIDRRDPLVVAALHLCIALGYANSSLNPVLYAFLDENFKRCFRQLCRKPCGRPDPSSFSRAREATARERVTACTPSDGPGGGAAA
Histamine H3 receptor, sequence (Q9Y5N1 whole entry): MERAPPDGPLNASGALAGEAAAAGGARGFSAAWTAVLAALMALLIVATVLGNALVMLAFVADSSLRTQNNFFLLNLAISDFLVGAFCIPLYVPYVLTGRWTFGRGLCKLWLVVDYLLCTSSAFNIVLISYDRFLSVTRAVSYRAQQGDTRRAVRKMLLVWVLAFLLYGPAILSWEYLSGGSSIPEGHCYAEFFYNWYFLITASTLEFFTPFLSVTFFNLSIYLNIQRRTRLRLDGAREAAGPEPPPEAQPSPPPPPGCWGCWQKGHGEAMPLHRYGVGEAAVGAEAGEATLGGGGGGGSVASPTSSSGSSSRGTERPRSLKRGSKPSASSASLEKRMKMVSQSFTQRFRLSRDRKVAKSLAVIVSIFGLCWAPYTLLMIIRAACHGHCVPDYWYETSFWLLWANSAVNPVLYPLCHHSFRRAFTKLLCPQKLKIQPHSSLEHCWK
Voltage-gated inwardly rectifying potassium channel KCNH2, sequence (Q12809 whole entry): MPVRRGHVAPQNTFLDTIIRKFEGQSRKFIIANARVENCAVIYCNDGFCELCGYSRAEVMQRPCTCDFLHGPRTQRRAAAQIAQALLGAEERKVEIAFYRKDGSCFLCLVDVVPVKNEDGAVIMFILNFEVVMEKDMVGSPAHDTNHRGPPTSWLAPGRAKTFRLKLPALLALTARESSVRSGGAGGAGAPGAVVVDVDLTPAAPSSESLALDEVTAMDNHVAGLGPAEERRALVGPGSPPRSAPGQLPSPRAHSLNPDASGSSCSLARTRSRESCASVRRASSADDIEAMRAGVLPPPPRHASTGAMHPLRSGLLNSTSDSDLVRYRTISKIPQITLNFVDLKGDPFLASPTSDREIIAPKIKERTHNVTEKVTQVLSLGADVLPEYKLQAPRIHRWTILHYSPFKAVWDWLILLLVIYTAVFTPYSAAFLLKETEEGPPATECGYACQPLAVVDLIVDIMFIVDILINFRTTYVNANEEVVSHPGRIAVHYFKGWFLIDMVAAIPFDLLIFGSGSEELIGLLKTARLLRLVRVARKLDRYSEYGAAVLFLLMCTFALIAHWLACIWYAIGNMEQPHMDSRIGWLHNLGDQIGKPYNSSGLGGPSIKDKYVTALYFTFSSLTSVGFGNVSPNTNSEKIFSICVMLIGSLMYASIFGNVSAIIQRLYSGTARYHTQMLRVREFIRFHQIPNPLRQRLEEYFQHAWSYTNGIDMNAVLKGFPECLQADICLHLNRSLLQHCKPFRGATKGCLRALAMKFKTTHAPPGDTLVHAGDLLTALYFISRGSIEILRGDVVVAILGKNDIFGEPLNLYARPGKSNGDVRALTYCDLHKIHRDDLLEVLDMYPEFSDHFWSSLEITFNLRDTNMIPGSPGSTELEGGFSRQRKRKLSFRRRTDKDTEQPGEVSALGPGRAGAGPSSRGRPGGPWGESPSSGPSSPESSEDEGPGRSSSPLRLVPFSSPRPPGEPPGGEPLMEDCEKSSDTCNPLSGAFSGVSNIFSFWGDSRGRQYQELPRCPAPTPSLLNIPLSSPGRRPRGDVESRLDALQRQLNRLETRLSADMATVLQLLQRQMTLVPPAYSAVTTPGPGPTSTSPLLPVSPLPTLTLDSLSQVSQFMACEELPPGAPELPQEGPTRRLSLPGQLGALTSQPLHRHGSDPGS

As for `Cc1ccc(-c2nc3ccc(C)cn3c2CC(=O)N(C)C)cc1` [ZOLPIDEM], the AC50 (in [1]; on Vasopressin V1a receptor; in test [2]; in [3]; in [4]; in [5]) was above 30 µM each time. Also, the half-maximal activity concentration (AC50) in [6] was above 30 µM; in [7] it was 18 µM; in test [8], above 30 µM; at Histamine H3 receptor, above 30 µM.
Turning to `NC(=O)C[S+]([O-])C(c1ccccc1)c1ccccc1` (centres undefined) [MODAFINIL], the AC50 in [1] is above 10 µM; on Vasopressin V1a receptor, above 10 µM; in test [2], above 10 µM; in [3] it was above 10 µM; in test [4], above 30 µM; in test [9], above 30 µM. The AC50 in test [5] is above 30 µM; in [6], above 10 µM; in [7] it was above 10 µM; at Histamine H3 receptor, above 10 µM.
For the compound `CCCCOc1cc(C(=O)NCCN(CC)CC)c2ccccc2n1` [DIBUCAINE], the AC50 in test [1] was above 10 µM; on Vasopressin V1a receptor it was above 30 µM; in test [10], above 10 µM; in test [2] it was above 10 µM; in [3] it was above 10 µM; in test [4], above 30 µM. In addition, the concentration at half-maximal activity (AC50) in [9] is 1.42 µM; in [5], above 30 µM; in test [6] it was above 30 µM; in test [7] it was 7.36 µM; in [8] it was above 10 µM.
Consider `COC(=O)C1=C(C)NC(C)=C(C(=O)OC(C)C)C1c1cccc2nonc12` (centres undefined) [ISRADIPINE], for which the AC50 was above 30 µM in test [1]; above 30 µM at Vasopressin V1a receptor; above 30 µM in test [10]; above 10 µM in test [2]; above 10 µM in test [3]; above 30 µM in [4]. Further, the concentration at half-maximal activity (AC50) in [9] is above 30 µM; in [5], above 30 µM; in [6], 11 µM; in test [7], 10.7 µM; in test [8], 26 µM.
Consider `CCN1CCC[C@H]1CNC(=O)c1cc(S(N)(=O)=O)ccc1OC` [LEVOSULPIRIDE], for which the half-maximal activity concentration (AC50) was above 30 µM at Vasopressin V1a receptor; above 10 µM in [2]; above 10 µM in test [3]; above 30 µM in test [4]; above 30 µM in test [9]; above 30 µM in test [6]. Also, the AC50 was above 10 µM in [7], above 30 µM in test [8] and above 10 µM on Histamine H3 receptor.
In the case of `CC(=O)OCC(=O)[C@@]12OC3(CCCC3)O[C@@H]1C[C@H]1[C@@H]3CCC4=CC(=O)C=C[C@]4(C)[C@@]3(F)[C@@H](O)C[C@@]12C` [AMCINONIDE], the AC50 is above 10 µM in test [1]; above 10 µM on Vasopressin V1a receptor; above 10 µM in [10]; above 10 µM in test [2]; above 10 µM in test [3]; above 30 µM in test [4]. Moreover, the AC50 was 17.3 µM in test [9]; above 10 µM in test [5]; above 30 µM in test [6]; above 10 µM in test [7]; above 10 µM in [8].
As to `CN1CCC2=C(C1)C(c1ccccc1)c1ccccc12` (centres undefined) [PHENINDAMINE], the AC50 in test [1] is 12 µM; at Vasopressin V1a receptor, above 10 µM; in test [10] it was above 10 µM; in [2], above 10 µM; in test [3] it was above 10 µM; in test [4], above 30 µM. The AC50 was above 30 µM in [9]; above 10 µM in test [5]; above 30 µM in test [6]; above 10 µM in test [7]; above 30 µM in [8].
On to `Cc1cc2c(OCC(CNC(C)(C)C)OC(=O)c3ccccc3)cccc2[nH]1` (centres undefined) [BOPINDOLOL], for which the half-maximal activity concentration (AC50) in test [1] was 3 µM; at Vasopressin V1a receptor, above 30 µM; in test [2], above 30 µM; in test [3], above 30 µM; in test [4], above 30 µM; in test [9], 0.49 µM. In addition, the AC50 in [5] was above 30 µM; in test [6], above 30 µM; in test [7], 2.1 µM; in test [8], 12 µM; on Histamine H3 receptor, above 30 µM.
With `CCNC(C)Cc1cccc(C(F)(F)F)c1` (centres undefined) [FENFLURAMINE], the half-maximal activity concentration (AC50) at Vasopressin V1a receptor is above 10 µM; in [2], above 30 µM; in test [9] it was above 30 µM; in test [5] it was above 30 µM; in [6] it was above 30 µM; in test [7], 13.4 µM. On Histamine H3 receptor, this compound had an AC50 above 10 µM.
`CN1C(=O)COc2c(C(=O)NC3CN4CCC3CC4)cc(Cl)cc21` (centres undefined) [AZASETRON]: the AC50 is above 30 µM in test [1]; above 30 µM on Vasopressin V1a receptor; above 30 µM in test [2]; above 30 µM in [3]; above 30 µM in [4]; 8.5 µM in [9]. For the same compound, the concentration at half-maximal activity (AC50) (in [5]; in test [6]; in test [7]; in test [8]; on Histamine H3 receptor) was above 30 µM in each case.
For the compound `CC(C)c1c(C(=O)Nc2ccccc2)c(-c2ccccc2)c(-c2ccc(F)cc2)n1CC[C@@H](O)C[C@@H](O)CC(=O)O` [ATORVASTATIN], the concentration at half-maximal activity (AC50) in test [1] is above 10 µM; at Vasopressin V1a receptor it was above 30 µM; in test [4], above 30 µM; in [5], above 30 µM; in test [6] it was above 30 µM; in test [7], above 10 µM. On Histamine H3 receptor, this compound had a concentration at half-maximal activity (AC50) above 10 µM.
For the compound `Nc1nc2ccc(OC(F)(F)F)cc2s1` [RILUZOLE], the half-maximal activity concentration (AC50) (in test [1]; on Vasopressin V1a receptor; in test [2]; in test [3]; in test [4]; in test [5]) was above 30 µM throughout. In addition, the AC50 (in test [6]; in [7]; in test [8]; on Histamine H3 receptor) was above 30 µM in each case.
Turning to `Cc1cccc(C)c1NC(=O)C1CCCCN1C` (centres undefined) [MEPIVACAINE], the AC50 in test [1], in test [2], in [3], in test [4], in test [9] and in [5] was above 30 µM throughout. The half-maximal activity concentration (AC50) (in [6]; in test [7]; in [8]; on Histamine H3 receptor) was above 30 µM each time.

The record behind these values is ChEMBL document CHEMBL5291721, “A preclinical secondary pharmacology resource illuminates target-adverse drug reaction associations of marketed drugs” (Nat Commun, 2023).
